Test results as given in patent US20230072421A1, “TARGETED RADIOPHARMACEUTICALS FOR THE DIAGNOSIS AND TREATMENT OF PROSTATE CANCER” (Bayer AS, priority 2019, published 2023).

Experiments:
[1] = target: T1, PSMA-expressing LNCaP cells (Homo sapiens, UniProt Q04609); assay: Binding competition assay against 3H-PSMA-617 on LNCaP cells; conditions: for % remaining 3H-PSMA-617 @ 10 nM (mean) / % remaining 3H-PSMA-617 @ 100 nM (mean) / remaining activity at 0.01 µM / remaining activity at 0.1 µM: LNCaP cells, 10 nM 3H-PSMA-617, 2 h at 37° C., triplicates; for % remaining 3H-PSMA-617 @ 10 nM (mean) / remaining activity at 0.01 µM: competing non-radiolabeled compound 10 nM; for % remaining 3H-PSMA-617 @ 100 nM (mean) / remaining activity at 0.1 µM: competing non-radiolabeled compound 100 nM; for competition against 3H-PSMA-617 on PSMA-expressing LNCaP cells (in words): comparison between examples
T1 construct: PSMA-expressing LNCaP cells; endogenous in cells; host or cells: LNCaP
Outline: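 Compounds added to LNCaP cells in growth medium, 2 h at 37 °C, 5% CO2. After two ice-cold PBS washes, cells lysed in 0.3 M NaOH and bound radioactivity measured by liquid scintillation counting.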

[2] = test system: VCap, C4-2, 22Rv1 and LnCap cells; assay: Cell proliferation assay, summary statements over several cell lines; assay type: cell-based; conditions: for antiproliferative activity on VCap, C4-2, 22Rv1 and LnCap cells (in words): 227Th-labelled compounds bearing the HOPO chelator Example A; for antiproliferative activity on VCap and C4-2 cells (in words): 227Th-labelled compounds, in comparison to 227Th-labelled examples 1-C monomer, dimer, trimer and tetramer
Procedure: Inhibition of cell proliferation of Thorium-227 labeled PMSA SMOL ligands was tested different prostate cancer cell lines, namely 22Rv1, VCaP, C4-2 (all from ATCC, Manassas, Va., USA) and LNCaP (DMSZ, Braunschweig). Cells were seeded using the following conditions in 384 well plates (Corning) in 30 μl of growth media at 4000 cells/well for VCaP cells and 1000 cells/well for 22Rv1, C4-2 and LNCaP cells.
Cells were cultivated an incubator at 37° C. and 5% C02 over night. […] In sister plates cell viability at treatment start (d=0) was determined using CellTiter-Glo® assay (CTG, Promega, Madison, Wis., USA), by adding 30 μl per well CTG solution, incubation for 10 min and reading of Luminescence in a PheraStarFSX instrument (BMG Labtech). After a 5-day exposure in the presenced of test compounds, cell viability of treated or untreated control cells was determined again using CellTiter-Glo® assay (Promega, Madison, Wis., USA). […] The DRC software is a Biobook Spreadsheet that was developed by Bayer AG and Bayer Business Services on the IDBS E-Workbook Suite platform (IDBS: ID Business Solutions Ltd., Guildford, UK).

[3] = test system: LNCaP human prostate cancer cells; assay: LNCaP xenograft efficacy study (T/C tumor area); assay type: in vivo, SCID mice; conditions: Example III; day 64 after start of therapy; single treatment 1.5 MBq/kg
Outline: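 SCID mice with testosterone pellet bearing s.c. flank LNCaP xenografts (5×10^6 cells in Matrigel) were treated i.v. with a defined radioactive dose once tumors reached 35-50 mm^2 (n=10/group). Tumor area (caliper, longest diameter × perpendicular) measured 2-3× weekly; T/C ratio calculated from tumor areas when vehicle group closed.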

T1 sequence (Q04609 whole entry): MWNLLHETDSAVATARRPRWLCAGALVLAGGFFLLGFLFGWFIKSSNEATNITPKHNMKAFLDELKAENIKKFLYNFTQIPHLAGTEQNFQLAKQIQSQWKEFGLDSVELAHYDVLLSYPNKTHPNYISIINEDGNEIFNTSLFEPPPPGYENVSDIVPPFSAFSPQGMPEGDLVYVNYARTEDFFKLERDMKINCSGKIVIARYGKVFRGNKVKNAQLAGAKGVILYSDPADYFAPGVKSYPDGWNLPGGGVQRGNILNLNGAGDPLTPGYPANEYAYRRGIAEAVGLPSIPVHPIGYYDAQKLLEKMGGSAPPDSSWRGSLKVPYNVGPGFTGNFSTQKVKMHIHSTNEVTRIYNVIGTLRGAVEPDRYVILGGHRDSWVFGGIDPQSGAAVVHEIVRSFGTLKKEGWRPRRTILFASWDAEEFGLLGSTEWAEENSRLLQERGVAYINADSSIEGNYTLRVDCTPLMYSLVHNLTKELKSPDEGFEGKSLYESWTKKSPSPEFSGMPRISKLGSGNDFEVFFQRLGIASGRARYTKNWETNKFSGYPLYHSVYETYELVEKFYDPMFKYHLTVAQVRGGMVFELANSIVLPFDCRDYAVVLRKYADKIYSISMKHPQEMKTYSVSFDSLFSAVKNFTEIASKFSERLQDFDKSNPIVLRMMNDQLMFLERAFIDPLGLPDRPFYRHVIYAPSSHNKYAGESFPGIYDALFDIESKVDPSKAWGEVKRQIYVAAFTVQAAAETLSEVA

Row | remaining activity at 0.01 µM [1] [%] | remaining activity at 0.1 µM [1] [%] | competition against 3H-PSMA-617 on PSMA-expressing LNCaP cells (in words) [1] | Structure (SMILES) | % remaining 3H-PSMA-617 @ 10 nM (mean) [1] [%] | % remaining 3H-PSMA-617 @ 100 nM (mean) [1] [%] | antiproliferative activity on VCap, C4-2, 22Rv1 and LnCap cells (in words) [2] | T/Carea [3] | antiproliferative activity on VCap and C4-2 cells (in words) [2]
1 | – | – | – | CNc1cc(CC(NC(=O)C2CCC(CNC(=O)Cn3c(C)cc(C(=O)NCCN(CCCN(CCNC(=O)c4cc(C)n(CC(=O)O)c(=O)c4O)CCNC(=O)c4cc(C)n(CC(=O)NCC5CCC(C(=O)NC(Cc6cc(NC)c7ccccc7c6)C(=O)NCCCCC(NC(=O)NC(CCC(=O)O)C(=O)O)C(=O)O)CC5)c(=O)c4O)CCNC(=O)c4cc(C)n(CC(=O)O)c(=O)c4O)c(O)c3=O)CC2)C(=O)NCCCCC(NC(=O)NC(CCC(=O)O)C(=O)O)C(=O)O)cc2ccccc12 (centres unmarked) [37-C dimer] | 64 | 13 | high antiproliferative activity | – | –
2 | 59 | 7 | improved competition | Cc1cc(C(=O)NCCN(CCCN(CCNC(=O)c2cc(C)n(CC(=O)NC[C@H]3CC[C@H](C(=O)N[C@@H](Cc4ccc5ccccc5c4)C(=O)NCCCC[C@H](NC(=O)N[C@@H](CCC(=O)O)C(=O)O)C(=O)O)CC3)c(=O)c2O)CCNC(=O)c2cc(C)n(CC(=O)NC[C@H]3CC[C@H](C(=O)N[C@@H](Cc4ccc5ccccc5c4)C(=O)NCCCC[C@H](NC(=O)N[C@@H](CCC(=O)O)C(=O)O)C(=O)O)CC3)c(=O)c2O)CCNC(=O)c2cc(C)n(CC(=O)NC[C@H]3CC[C@H](C(=O)N[C@@H](Cc4ccc5ccccc5c4)C(=O)NCCCC[C@H](NC(=O)N[C@@H](CCC(=O)O)C(=O)O)C(=O)O)CC3)c(=O)c2O)c(O)c(=O)n1CC(=O)NC[C@H]1CC[C@H](C(=O)N[C@@H](Cc2ccc3ccccc3c2)C(=O)NCCCC[C@H](NC(=O)N[C@@H](CCC(=O)O)C(=O)O)C(=O)O)CC1 [1-C tetramer] | – | – | high antiproliferative activity | 0.36 | –
3 | 42 | 8 | – | Cc1cc(C(=O)NCCN(CCCN(CCNC(=O)c2cc(C)n(CC(=O)O)c(=O)c2O)CCNC(=O)c2cc(C)n(CC(=O)NC[C@H]3CC[C@H](C(=O)N[C@@H](Cc4ccc5ccccc5n4)C(=O)NCCCC[C@H](NC(=O)N[C@@H](CCC(=O)O)C(=O)O)C(=O)O)CC3)c(=O)c2O)CCNC(=O)c2cc(C)n(CC(=O)O)c(=O)c2O)c(O)c(=O)n1CC(=O)O [Example 17-C monomer] | – | – | high antiproliferative activity | – | –
4 | 32 | 5 | improved competition | Cc1cc(C(=O)NCCN(CCCN(CCNC(=O)c2cc(C)n(CC(=O)O)c(=O)c2O)CCNC(=O)c2cc(C)n(CC(=O)NC[C@H]3CC[C@H](C(=O)N[C@@H](Cc4ccc5ccccc5c4)C(=O)NCCCC[C@H](NC(=O)N[C@@H](CCC(=O)O)C(=O)O)C(=O)O)CC3)c(=O)c2O)CCNC(=O)c2cc(C)n(CC(=O)O)c(=O)c2O)c(O)c(=O)n1CC(=O)O [Example 1-C Monomer] | – | – | high antiproliferative activity | – | –
5 | 45 | 9 | improved competition | Cc1cc(C(=O)NCCN(CCCN(CCNC(=O)c2cc(C)n(CC(=O)NC[C@H]3CC[C@H](C(=O)N[C@@H](Cc4ccc5ccccc5c4)C(=O)NCCCC[C@H](NC(=O)N[C@@H](CCC(=O)O)C(=O)O)C(=O)O)CC3)c(=O)c2O)CCNC(=O)c2cc(C)n(CC(=O)NC[C@H]3CC[C@H](C(=O)N[C@@H](Cc4ccc5ccccc5c4)C(=O)NCCCC[C@H](NC(=O)N[C@@H](CCC(=O)O)C(=O)O)C(=O)O)CC3)c(=O)c2O)CCNC(=O)c2cc(C)n(CC(=O)NC[C@H]3CC[C@H](C(=O)N[C@@H](Cc4ccc5ccccc5c4)C(=O)NCCCC[C@H](NC(=O)N[C@@H](CCC(=O)O)C(=O)O)C(=O)O)CC3)c(=O)c2O)c(O)c(=O)n1CC(=O)O [1-C trimer] | – | – | high antiproliferative activity | – | –
6 | – | – | – | Cc1cc(C(=O)NCCN(CCCN(CCNC(=O)c2cc(C)n(CC(=O)NC[C@H]3CC[C@H](C(=O)N[C@@H](Cc4cnc5ccccc5c4)C(=O)NCCCC[C@H](NC(=O)N[C@@H](CCC(=O)O)C(=O)O)C(=O)O)CC3)c(=O)c2O)CCNC(=O)c2cc(C)n(CC(=O)NC[C@H]3CC[C@H](C(=O)N[C@@H](Cc4cnc5ccccc5c4)C(=O)NCCCC[C@H](NC(=O)N[C@@H](CCC(=O)O)C(=O)O)C(=O)O)CC3)c(=O)c2O)CCNC(=O)c2cc(C)n(CC(=O)NC[C@H]3CC[C@H](C(=O)N[C@@H](Cc4cnc5ccccc5c4)C(=O)NCCCC[C@H](NC(=O)N[C@@H](CCC(=O)O)C(=O)O)C(=O)O)CC3)c(=O)c2O)c(O)c(=O)n1CC(=O)O [Example 22-C trimer] | 33 | 5 | high antiproliferative activity | – | –
7 | – | – | – | Cc1cc2c(c(=O)n1CC(=O)O)[O][227Th]13[O]c4c(cc(C)n(CC(=O)O)c4=O)C(=O)NCCN(CCCN(CCNC(=O)c4cc(C)n(CC(=O)O)c(=O)c4[O]1)CCNC(=O)c1cc(C)n(CC(=O)NCc4ccc(C(=O)N[C@@H](Cc5ccc6ccccc6n5)C(=O)NCCCC[C@H](NC(=O)N[C@@H](CCC(=O)O)C(=O)O)C(=O)O)nc4)c(=O)c1[O]3)CCNC2=O [34-C monomer] | – | – | high antiproliferative activity | – | improved antiproliferative activity

Row | Structure (SMILES) | remaining activity at 0.01 µM [1] [%] | remaining activity at 0.1 µM [1] [%] | competition against 3H-PSMA-617 on PSMA-expressing LNCaP cells (in words) [1] | % remaining 3H-PSMA-617 @ 10 nM (mean) [1] [%] | % remaining 3H-PSMA-617 @ 100 nM (mean) [1] [%] | antiproliferative activity on VCap, C4-2, 22Rv1 and LnCap cells (in words) [2] | T/Carea [3] | antiproliferative activity on VCap and C4-2 cells (in words) [2]
8 | Cc1cc(C(=O)NCCN(CCCN(CCNC(=O)c2cc(C)n(CC(=O)NCc3ccc(C(=O)N[C@@H](Cc4ccc5ccccc5n4)C(=O)NCCCC[C@H](NC(=O)N[C@@H](CCC(=O)O)C(=O)O)C(=O)O)nc3)c(=O)c2O)CCNC(=O)c2cc(C)n(CC(=O)NCc3ccc(C(=O)N[C@@H](Cc4ccc5ccccc5n4)C(=O)NCCCC[C@H](NC(=O)N[C@@H](CCC(=O)O)C(=O)O)C(=O)O)nc3)c(=O)c2O)CCNC(=O)c2cc(C)n(CC(=O)NCc3ccc(C(=O)N[C@@H](Cc4ccc5ccccc5n4)C(=O)NCCCC[C@H](NC(=O)N[C@@H](CCC(=O)O)C(=O)O)C(=O)O)nc3)c(=O)c2O)c(O)c(=O)n1CC(=O)NCc1ccc(C(=O)N[C@@H](Cc2ccc3ccccc3n2)C(=O)NCCCC[C@H](NC(=O)N[C@@H](CCC(=O)O)C(=O)O)C(=O)O)nc1 [34-C tetramer] | 73 | 14 | – | – | – | high antiproliferative activity | – | improved antiproliferative activity
9 | Cc1cc(C(=O)NCCN(CCCN(CCNC(=O)c2cc(C)n(CC(=O)O)c(=O)c2O)CCNC(=O)c2cc(C)n(CC(=O)NC[C@H]3CC[C@H](C(=O)N[C@@H](Cc4ccc5ccccc5c4)C(=O)NCCCC[C@H](NC(=O)N[C@@H](CCC(=O)O)C(=O)O)C(=O)O)CC3)c(=O)c2O)CCNC(=O)c2cc(C)n(CC(=O)NC[C@H]3CC[C@H](C(=O)N[C@@H](Cc4ccc5ccccc5c4)C(=O)NCCCC[C@H](NC(=O)N[C@@H](CCC(=O)O)C(=O)O)C(=O)O)CC3)c(=O)c2O)c(O)c(=O)n1CC(=O)O [1-C dimer, (3S,10S,14S,3'S,10'S,14'S)-1,1′-(propane-1,3-diylbis{[(2-{[1-(carboxymethyl)-3-hydroxy-6-methyl-2-oxo-1,2-dihydropyridine-4-carbonyl]amino}ethyl)azanediyl]ethane-2,1-diylcarbamoyl(3-hydroxy-6-methyl-2-oxopyridine-4,1(2H)-diyl)(1-oxoethane-2,1-diyl)azanediylmethylene(1r,4S)cyclohexane-4,1-diyl})bis{3-[(naphthalen-2-yl)methyl]-1,4,12-trioxo-2,5,11,13-tetraazahexadecane-10,14,16-tricarboxylic acid}] | – | – | improved competition | 39 | 5 | high antiproliferative activity | – | –
